No end group written: not given here.
Experiments:
[1] = biological target: purified human recombinant DPP-IV enzyme (Homo sapiens, UniProt P27487); conditions: read-out: IC50, in vitro on the DPP-IV enzyme; cited from earlier work
[2] = biological target: T1, angiotensin-converting enzyme (ACE) (Homo sapiens, UniProt P12821); test: Cellular ACE inhibitory assay in renal HK-2 cells; type: cell-based; design: endogenous in cells; conditions: HK-2 cells treated 24 h at 37 °C with P7 0.1–250 μM; ACE activity in cell lysates, fluorescent Abz substrate; mean ± sd of three independent experiments in triplicate
Procedure: (§1) HK-2 cells from the American Type Culture Collection (ATCC) were cultured using Dulbecco’s modified Eagle’s medium–F12 (DMEM–F12) containing 25 mM glucose, 4 mM stable L-glutamine, 100 units […] penicillin, and 100 μg […] streptomycin, supplemented with 10% heat-inactivated fetal bovine serum (FBS, Hyclone Laboratories, Logan, UT, U.S.A.). […]
(§2) For the experiments, HK-2 and Caco-2 cells were seeded on 96-well plates at a density of 5 × 10^4 cells/well for 24 h. […] Total proteins were quantified by the Bradford method, and 2 μL of the supernatant (the equivalent of 2 μg of total proteins) was added to 18 μL of ACE1 lysis buffer in each well in a black 96-well plate with a clear bottom. […] Then, 20 μL of diluted ACE1 substrate [o-aminobenzoyl peptide (Abz-based peptide) substrate, 4% of ACE1 substrate in the assay buffer] was added in each well, except the background well, and the fluorescence (excitation/emission of 330/430 nm) was measured in a kinetic mode for 10 min at 37 °C.

[3] = biological target: T2, HMGCoAR (catalytic domain) (Homo sapiens, UniProt P04035); conditions: read-out: IC50, in vitro HMGCoAR activity; cited from earlier work
T2 construct: finally the HMGCoAR (catalytic domain) (2 µL); purchased Sigma
T2 sequence (P04035 426-888 limits assumed): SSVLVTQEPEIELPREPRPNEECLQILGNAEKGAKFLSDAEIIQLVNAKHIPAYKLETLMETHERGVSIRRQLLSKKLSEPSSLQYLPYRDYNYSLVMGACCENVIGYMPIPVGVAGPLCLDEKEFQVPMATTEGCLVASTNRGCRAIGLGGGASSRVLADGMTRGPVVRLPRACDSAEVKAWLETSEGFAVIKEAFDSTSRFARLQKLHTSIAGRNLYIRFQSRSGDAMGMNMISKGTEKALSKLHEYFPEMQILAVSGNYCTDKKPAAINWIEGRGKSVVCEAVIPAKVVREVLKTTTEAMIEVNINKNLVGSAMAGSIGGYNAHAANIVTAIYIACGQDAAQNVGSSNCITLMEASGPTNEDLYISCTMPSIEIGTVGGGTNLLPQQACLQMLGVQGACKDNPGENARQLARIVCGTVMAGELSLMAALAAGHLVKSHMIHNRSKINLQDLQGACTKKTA
Text: To express their activity in vivo, peptides masked within a protein sequence need not only be released by specific and selective proteases but may also be absorbed at the intestinal level and enter blood circulation to reach the target organs.[2] Differentiated Caco-2 cells still represent the best available model system for intestinal transport studies.[3]−[5] […] To function as a competitive inhibitor of HMGCoAR, a peptide should mimic the hydroxymethylglutaryl moiety. To achieve this goal, the conformation and side chain groups play a more important role than the total hydrophobicity. Moreover, the correlation of the inhibitory activity with the peptide length has not yet been established, while it has been confirmed that a ...

[4] = biological target: T1, angiotensin-converting enzyme (ACE); test: Cellular ACE inhibitory assay in undifferentiated intestinal Caco-2 cells; type: cell-based; design: endogenous in cells; host or cells: Caco-2 cells (INSERM, Paris); conditions: Caco-2 cells treated 24 h at 37 °C with P7 0.1–250 μM; ACE activity in cell lysates, fluorescent Abz substrate; mean ± sd of three independent experiments in triplicate
Procedure: as §1, §2

T1 sequence (P12821 30-1306): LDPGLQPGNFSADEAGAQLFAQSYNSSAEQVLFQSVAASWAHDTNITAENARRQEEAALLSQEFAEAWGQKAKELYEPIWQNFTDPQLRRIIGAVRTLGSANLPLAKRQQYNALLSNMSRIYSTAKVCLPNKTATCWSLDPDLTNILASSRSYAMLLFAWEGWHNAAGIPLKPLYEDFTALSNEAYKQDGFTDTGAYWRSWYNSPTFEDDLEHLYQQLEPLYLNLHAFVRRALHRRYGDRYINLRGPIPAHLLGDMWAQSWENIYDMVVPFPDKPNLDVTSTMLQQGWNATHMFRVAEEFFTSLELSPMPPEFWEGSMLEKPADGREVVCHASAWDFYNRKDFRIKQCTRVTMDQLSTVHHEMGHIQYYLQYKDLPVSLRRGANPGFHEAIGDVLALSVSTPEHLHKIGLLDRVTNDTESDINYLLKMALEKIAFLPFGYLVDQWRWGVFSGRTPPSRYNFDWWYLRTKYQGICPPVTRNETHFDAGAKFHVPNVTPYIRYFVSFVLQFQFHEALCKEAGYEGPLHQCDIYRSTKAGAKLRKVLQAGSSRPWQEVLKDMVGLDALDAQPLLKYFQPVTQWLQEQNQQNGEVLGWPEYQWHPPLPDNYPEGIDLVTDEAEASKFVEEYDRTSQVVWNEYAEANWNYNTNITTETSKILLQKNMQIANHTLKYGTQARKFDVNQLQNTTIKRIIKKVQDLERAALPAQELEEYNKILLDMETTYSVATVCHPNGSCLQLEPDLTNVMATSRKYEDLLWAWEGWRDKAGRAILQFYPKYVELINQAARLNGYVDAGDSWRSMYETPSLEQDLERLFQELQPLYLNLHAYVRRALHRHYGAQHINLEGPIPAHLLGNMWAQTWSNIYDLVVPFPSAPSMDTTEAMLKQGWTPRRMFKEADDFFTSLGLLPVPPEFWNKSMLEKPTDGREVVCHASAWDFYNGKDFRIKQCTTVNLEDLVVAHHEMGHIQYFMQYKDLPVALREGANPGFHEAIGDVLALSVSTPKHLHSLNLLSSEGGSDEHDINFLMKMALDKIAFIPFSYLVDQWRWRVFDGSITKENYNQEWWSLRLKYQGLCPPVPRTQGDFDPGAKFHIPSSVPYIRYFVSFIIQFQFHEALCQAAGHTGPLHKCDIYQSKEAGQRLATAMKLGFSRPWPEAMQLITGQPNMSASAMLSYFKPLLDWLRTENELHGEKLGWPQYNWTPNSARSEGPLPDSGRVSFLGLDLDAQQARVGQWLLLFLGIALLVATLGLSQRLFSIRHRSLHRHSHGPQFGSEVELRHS
purified human recombinant DPP-IV enzyme, sequence (P27487 whole entry): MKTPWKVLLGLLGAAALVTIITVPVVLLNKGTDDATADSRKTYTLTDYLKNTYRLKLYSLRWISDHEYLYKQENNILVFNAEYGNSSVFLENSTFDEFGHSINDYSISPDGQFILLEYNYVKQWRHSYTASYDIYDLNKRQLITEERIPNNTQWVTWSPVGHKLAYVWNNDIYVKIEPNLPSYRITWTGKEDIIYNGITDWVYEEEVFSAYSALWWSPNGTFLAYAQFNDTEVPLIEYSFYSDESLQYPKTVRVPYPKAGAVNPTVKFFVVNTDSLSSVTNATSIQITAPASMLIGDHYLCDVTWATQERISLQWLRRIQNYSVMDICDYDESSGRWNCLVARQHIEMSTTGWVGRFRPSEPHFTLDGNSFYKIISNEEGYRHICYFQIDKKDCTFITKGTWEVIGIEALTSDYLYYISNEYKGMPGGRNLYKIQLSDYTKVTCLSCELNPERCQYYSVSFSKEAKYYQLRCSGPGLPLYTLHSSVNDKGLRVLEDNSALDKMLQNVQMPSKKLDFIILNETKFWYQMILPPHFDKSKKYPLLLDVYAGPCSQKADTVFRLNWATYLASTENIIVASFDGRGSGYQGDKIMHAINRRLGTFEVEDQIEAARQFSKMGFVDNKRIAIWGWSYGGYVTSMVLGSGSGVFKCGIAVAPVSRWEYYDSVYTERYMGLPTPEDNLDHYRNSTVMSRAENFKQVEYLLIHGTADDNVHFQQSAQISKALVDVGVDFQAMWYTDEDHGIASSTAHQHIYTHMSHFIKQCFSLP

- IC50 [2]: 79.6 µM
- IC50 [4]: 13.7 µM
Sequence: LTFPGSAED [P7]
- IC50 [1]: 228 µM
- IC50 [3]: 68.4 µM

From publication PMC7997369, “Assessment of the Multifunctional Behavior of Lupin Peptide P7 and Its Metabolite Using an Integrated Strategy” (Journal of Agricultural and Food Chemistry, 2020)
